# Reference: US20120270914A1, “SPLIT-LUCIFERASE C-MYC SENSOR AND USES THEREOF” (THE BOARD OF TRUSTEES OF THE LELAND STANFORD JUNIOR …, priority 2011, published 2012)
# Columns and labels:
# c-Myc [1] = experiment: Western blot analysis of endogenous phospho c-Myc in SKBR3 cells; format: cell-based, human; conditions: for endogenous c-Myc phosphorylation level: Western blot
# Protocol: (§1) FIGS. 26A and 26B illustrate the inhibition of endogenous c-Myc. FIG. 26A: Western blot analysis of SKBR3 cells after NTZ treatment was performed using phospho c-Myc, c-Myc protein, and β-actin antibodies. […] The fold-change of phospho c-Myc level was plotted against the log scale of NTZ concentration.
# (§2) Western Blot Analysis: Total cell lysates were collected using 1× cell lysis buffer (Cell Signaling), as directed by the manufacturer. The protein concentration was determined using the BioRad DC protein assay. SDS/PAGE analysis of 50 μg of protein was transferred to an lmmobilon-P membrane (Millipore). Anti-phosphor-c-Myc (Thr58/Ser62) and anti-c-Myc antibody (Cell Signaling) were used to visualize the phospho c-Myc and c-Myc protein, respectively, as directed by the manufacturer. Anti-FLuc-HRP antibody was used to detect the FL fragments, as directed by the manufacturer (Sigma-Aldrich). β-actin protein was used as a loading control and detected by anti-β-actin antibody (Sigma-Aldrich). Immunoblots were developed using the Pierce ECL Kit, as directed by the manufacturer. Protein levels were determined by quantifying the band intensities on Western blot analysis using ImageJ's ROI manager.
# (§3) Drug Inhibition Assay: SKBR3 stable cells constitutively expressing the sensor system (SK ST) or the full-length FL (SK FST) were treated with PD98059 (Cell Signaling) for 2 h, U0126 (Cell Signaling) for 1 h, and purified AT (Sequoia Research Products) for 16 h at the indicated concentrations and imaged with D-Luc in the IVIS 50 BLI system (FIGS. 6A and 6B, and FIGS. 10A-12D). In addition, 293T stable cells constitutively expressing the sensor system (293T ST) or the full-length FL (293T FST) were treated with AT for 16 h at the indicated concentrations (FIGS. 6A and 6B, and FIGS. 13A-13D) and imaged with D-Luc in the IVIS 50 system. The photon output of FL imaging was normalized to the total protein content, and the FL activity of SK ST or 293T ST was normalized to that of SK FST or 293T FST, respectively. SKBR3 and 293T cells were treated as above and lysed for Western blot analysis of phospho c-Myc, c-Myc, and β-actin proteins. The correlation coefficient between the fold change of normalized FL activity and the fold change of normalized phospho c-Myc level (phospho c-Myc/β-actin) was determined based on the R^2 value.
# c-Myc [2] = experiment: Western blot analysis of endogenous phospho c-Myc in 293T cells; format: cell-based, human
# Protocol: as §2, with “Immunoblots were developed using the Pierce ECL Kit, as directed by the manufacturer.” left out
# Drug Inhibition Assay: SKBR3 stable cells constitutively expressing the sensor system (SK ST) or the full-length FL (SK FST) were treated with PD98059 (Cell Signaling) for 2 h, U0126 (Cell Signaling) for 1 h, and purified AT (Sequoia Research Products) for 16 h at the indicated concentrations and imaged with D-Luc in the IVIS 50 BLI system (FIGS. 6A and 6B, and FIGS. 10A-12D). […] The correlation coefficient between the fold change of normalized FL activity and the fold change of normalized phospho c-Myc level (phospho c-Myc/β-actin) was determined based on the R^2 value.
# c-Myc [3] = experiment: Hydrodynamic injection of the c-Myc sensor and BLI in Eμ-tTA/Tet-O-MYC transgenic mice; format: in vivo
# From the text: To test the in vivo application of the sensor system, SKBR3 cells were first transiently transfected separately with equal DNA molar amounts of the vectors pcDNA3.1(+), GSK 35-433-CFL/NFL-c-Myc or GSK 35-433-CFL/NFL-c-Myc T851 and implanted them subcutaneously in different locations in each nude mouse (n=3; FIG. 7A). hRL was also co-expressed for control of transfection efficiency. […] However, on intraperitoneal injection of the FL substrate D-Luciferin (D-Luc), xenografts carrying pcDNA3.1(+) had very low complemented FL activity, whereas those carrying GSK 35-433-CFL/NFL-c-Myc had 10.6-fold higher activity. Those carrying GSK 35-433-CFL/NFL-c-Myc T851 had 4.7-fold higher activity after normalization to their hRL activity (FIG. 7C). Thus, the complemented FL activity determined by the phosphorylation status of NFL-c-Myc can be imaged and quantified in a mouse xenograft model. The sensor system was also transiently expressed in the liver of two transgenic mice using hydrodynamic injection. These mice carried a liver-specific transgene of c-Myc under control of the Tet system (Shachaf et al. (2007) Blood 110: 2674-2684).
# Both mice had doxycycline discontinued, followed by a 29-day course of treatment with AT in one mouse and with PBS in the other mouse. […] This signal reduction was consistent with the reduced endogenous c-Myc phosphorylation and the histological changes in the liver tissue samples (FIG. 7E).
# Hydrodynamic Injection: Eμ-tTA/Tet-O-MYC transgenic mice (Shachaf et al. (2007) Blood 110: 2674-2684) (n=2) were removed from doxycycline treatment at 8 wk of age and underwent gavage with AT or PBS as described above. At 29 d after treatment, these two mice underwent imaging studies to characterize the liver phospho c-Myc level after hydrodynamic injection (Frame et al., (2001) Mol. Cell 7: 1321-1327) of the c-Myc sensor. […]
# c-Myc [4] = experiment: Drug inhibition assay: BLI of 293T stable cells expressing the c-Myc sensor (293T ST), normalized to 293T FST; format: cell-based, human; conditions: 293T ST cells; after normalization to FL activity of 293T FST cells; AT 16 h
# Protocol: (§4) To test the ability of the sensor to monitor c-Myc phosphorylation levels on drug treatment, the SKBR3 and 293T stable cells (SK ST and 293T ST) were established that constitutively express the sensor. SKBR3 and 293T stable cells were also constructed that constitutively express the full-length FL (SK FST and 293T FST) for the control of direct drug effect on FL activity.
# Luciferase Activity Assay: BLI of luciferase activity in intact cells was performed as described previously (Hann (2006) Semin Cancer Biol 16(4):288-302). In brief, 24 h after transfection, culture medium was replaced with a PBS solution (pH 7.0) of 45 μg/mL D-Luc for FL imaging or of 10 μg/mL of Clz for RL imaging with the IVIS BLI system (Xenogen). Images were acquired at 2-min intervals until the peak signal was reached. The photon output of FL or RL imaging in transiently transfected cells was normalized to co-expressed RL or FL activity, respectively, measured by an in vitro luminometry assay as described previously (Chan et al. (2008) Cancer Res. 68:216-226), then normalized to the total protein in the cell lysates, measured by the BioRad DC protein assay as directed by the manufacturer. In stable cells, the photon output of FL imaging was normalized to the total protein in the cell lysates. […]
# c-Myc [5] = conditions: Shachaf et al. 2007; cited from earlier work
# c-Myc [6] = experiment: Drug inhibition assay: BLI of SKBR3 stable cells constitutively expressing the c-Myc sensor (SK ST), normalized to full-length FL cells (SK FST); format: cell-based, human; conditions: for reduction in complemented FL activity compared between drugs: SK ST cells normalized to SK FST cells; for complemented FL activity: SK ST cells, after normalization to effect on FL activity of SK FST cells, PD98059 2 h, U0126 1 h, AT 16 h
# Protocol: as §4
# Luciferase Activity Assay: BLI of luciferase activity in intact cells was performed as described previously (Hann (2006) Semin Cancer Biol 16(4):288-302). In brief, 24 h after transfection, culture medium was replaced with a PBS solution (pH 7.0) of 45 μg/mL D-Luc for FL imaging or of 10 μg/mL of Clz for RL imaging with the IVIS BLI system (Xenogen). Images were acquired at 2-min intervals until the peak signal was reached. The photon output of FL or RL imaging in transiently transfected cells was normalized to co-expressed RL or FL activity, respectively, measured by an in vitro luminometry assay as described previously (Chan et al. (2008) Cancer Res. 68:216-226), then normalized to the total protein in the cell lysates, measured by the BioRad DC protein assay as directed by the manufacturer. In stable cells, the photon output of FL imaging was normalized to the total protein in the cell lysates.
# as §3
# [7] = system: SK ST and SK FST xenografts; experiment: BLI of SK ST and SK FST subcutaneous xenografts in nude mice under AT treatment; format: in vivo
# Protocol: The mice underwent gavage with AT (20 μL, 1.25 mM; n=5) or with PBS (20 μL; n=5) every other day.
# BLI of Living Mice: BLI of mouse xenografts was performed with the IVIS Spectrum optical imaging system (Xenogen) as described previously (Chan et al. (2008) Cancer Res. 68:216-226, incorporated herein by refrence in its entirety), with some modifications. At 4 h after transient transfection with the indicated constructs (FIG. 7A), 5×10^6 SKBR3 cells were implanted subcutaneously into the indicated locations of nude mice (nu/nu; n=3). At 16 h after cell implantation, a Clz PBS (0.3 μg/μL; 100 μL) solution was injected intravenously for RL imaging. Then, 8 h later, FL imaging was acquired with D-Luc PBS solution (45 μg/μL; 100 μL) via intraperitoneal injection. Subsequently, 5×10^6 each of SK ST and SK FST cells were implanted subcutaneously into nude mice (nu/nu; n=10) as indicated (FIG. 8A). FL imaging was performed 1 day after the implantation and every other day thereafter. After each FL imaging, half of the mice underwent gavage with AT PBS solution (1.25 mM; 20 μL), and the other half did so with PBS only (20 μL). After 23 d of treatment, the mice were killed, and xenograft tissue samples were collected for Western blot analysis of phospho c-Myc, c-Myc, and α-tubulin proteins.
# c-Myc [8] = conditions: Hydbring et al. 2009; cited from earlier work
# [9] = system: NFL-c-MycS62A mutant sensor; experiment: BLI of SKBR3 cells transiently transfected with the S62A mutant sensor; format: cell-based, human; conditions: PD98059 1 h
# Protocol: FIG. 14A is a digital image showing the NFL-c-Myc WT construct or the NFL-c-MycS62A mutant construct transiently transfected into SKBR3 cells with GSK 35-433-CFL construct and subjected to PD98059 of indicated concentration for 1 h, followed by BLI.
# FIG. 14B is a graph showing FL activity normalized to co-transfected RL activity and the total protein content and plotted against the drug concentration.
# These differential signal inhibitions also were correlated with the decreased endogenous c-Myc phosphorylation level, as shown in FIG. 6A.
# c-Myc [10] = experiment: Phospho c-Myc level in sarcoma cells; format: cell-based; conditions: read-out: IC50, inhibition of phospho c-Myc level
# Protocol: as §1
# [11] = system: SK-ST subcutaneous tumor xenograft; experiment: SK-ST subcutaneous tumor xenograft mouse model under NTZ treatment; format: in vivo; conditions: NTZ vs CMC treated groups, up to 27 days after implantation
# From the text: FIGS. 27A and 27B illustrate the efficacy of NTZ in a SK-ST subcutaneous tumor xenograft mouse model. FIG. 27A: SK-ST stable cells were subcutaneously implanted as indicated and treated with NTZ or CMC. Representative images of FL imaging at indicated days of treatment are shown. FIG. 27B: Photon output of SK-ST cells with NTZ or CMC treatment is plotted against days after implantation. * P<0.05. […] FIG. 28A: Representative photographs of removed tumors from CMC or NTZ treated mice 27 days after implantation. FIG. 28B: Plot of caliper measured tumor sizes of NTZ or CMC treated groups at different days after implantation. *P<0.05, **P<0.01. FIGS. 29A and 29B illustrate immunohistochemistry and western blot analysis of NTZ treated tumor samples. FIG. 29A: Representative images of H&E, Ki67 and caspase-3 IHC staining of tumor tissue samples from each group. FIG. 29B: Western blot analysis of tumor tissue samples using phospho c-Myc, c-Myc and α-tubulin antibodies.
# c-Myc [12] = experiment: Phospho c-Myc level in lymphoma cells; format: cell-based; conditions: read-out: IC50, inhibition of phospho c-Myc level
# Protocol: as §1
structure (smiles),measurement,setting,value
"CC(C)c1c(C(=O)Nc2ccccc2)c(-c2ccccc2)c(-c2ccc(F)cc2)n1CC[C@@H](O)C[C@@H](O)CC(=O)O [AT, Atorvastatin]",endogenous c-Myc phosphorylation level,c-Myc [1],decreased
same,endogenous c-Myc phosphorylation level,c-Myc [2],increase
same,liver tumor size,"c-Myc [3]; 29-day treatment, AT vs PBS, one mouse each",no significant difference
same,endogenous c-Myc phosphorylation in liver tissue samples,c-Myc [3]; Western blot after 29-day treatment,reduced
same,complemented FL activity in liver,"c-Myc [3]; on addition of D-Luc, AT vs PBS treated mouse",much lower
same,complemented FL activity,c-Myc [4],dose-dependent increase
same,c-Myc-induced lymphomagenesis,c-Myc [5],preventing
same,phosphorylation of c-Myc,c-Myc [5],reduce
same,reduction in complemented FL activity compared between drugs,c-Myc [6],greater reduction in complemented FL activity with lower drug concentrations than did U0126
same,complemented FL activity,c-Myc [6],dose-dependent reduction
same,c-Myc phosphorylation levels in tumor tissue samples,"[7]; 23 d after implantation, Western blot",decreased
same,sensor signal (complemented FL activity of SK ST normalized to SK FST),[7]; AT group,sustained decrease
same,tumor size,[7]; AT vs PBS group,no detectable difference
same,tumor growth,[7]; eventual effect of AT,reduced tumor growth
same,complemented FL activity of SK ST xenografts,"[7]; from 10 d after implantation, gavage AT 20 μL 1.25 mM every other day",increased only slightly
same,FL activity of SK FST xenografts,[7]; up to about 18 d after implantation,higher in the PBS-treated group compared with the AT-treated group
N#CC(=C(/N)Sc1ccccc1N)/C(C#N)=C(\N)Sc1ccccc1N [U0126],c-Myc phosphorylation level in vitro,c-Myc [8],decrease
same,endogenous c-Myc phosphorylation level,c-Myc [1],decreased
same,reduction in complemented FL activity compared between drugs,c-Myc [6],greater reduction than PD98059
same,complemented FL activity,c-Myc [6],dose-dependent reduction
COc1cccc(-c2cc(=O)c3ccccc3o2)c1N [PD98059],c-Myc phosphorylation level in vitro,c-Myc [8],decrease
same,endogenous c-Myc phosphorylation level,c-Myc [1],decreased
same,response of mutant sensor to phosphorylation inhibition of c-Myc,[9],did not respond
same,complemented FL activity,c-Myc [6],dose-dependent reduction
"CC(=O)Oc1ccccc1C(=O)Nc1ncc([N+](=O)[O-])s1 [NTZ, nitazoxanide]",IC50,c-Myc [10],12 nM
same,IC50,"c-Myc [1]; read-out: IC50, inhibition of phospho c-Myc level",122 nM
same,tumor growth (caliper measured tumor sizes),[11],inhibition of tumor growth
same,IC50,c-Myc [12],440 nM
same,luciferase activity when cells are exposed to nitazoxanide,c-Myc [6]; in vitro validation of the assay system,decrease in luciferase activity
